From patent US8450441B2, “Synthetic N-linked sialo-glycan-containing polymer and method for producing the same” (priority 2007, dated 2013)
pIC50: −log10 of the molar value.

Assays:
A/Aichi/2/68 (H3N2) = type: cell-based, Influenza A virus (Human strain); conditions: for pIC50: read-out: HI activity IC50
[1] = test system: A/Duck/HK/313/4/78 (H5N3); type: cell-based, Influenza A virus (Avian strain); conditions: read-out: HI activity IC50

Substance | pIC50 (A/Aichi/2/68 (H3N2)) | pIC50 [1] | inhibition activity of human influenza virus infection compared with conventional O-linked sialo-glycan-containing polymer (A/Aichi/2/68 (H3N2)) | inhibition activity of human influenza virus infection compared with Poly[Neu5Ac α2-6-LacNAc β-N-(ε-aminocaproyl/γ-PGA] (A/Aichi/2/68 (H3N2))
Poly[N-(ε-aminocaproyl)-β-N-acetyllactosaminylamine/-γ-PGA]] | < 6.70 | < 6.70 | – | –
Poly[N-(ε-aminocaproyl)-β-lacto-N-neotetraosylamine/-γ-PGA]] | < 6.70 | < 6.70 | – | –
Poly[N-(ε-aminocaproyl)-β-lactosylamine/-γ-PGA]] | < 6.70 | < 6.70 | – | –
Poly[Neu5Ac α2-3-N-acetyllactosaminylamine β-N-(ε-aminocaproyl)/γ-PGA] | 7.43 | 7.43 | – | –
Poly[Neu5Ac α2-3lacto-N-neotetraosylamine β-N-(ε-aminocaproyl)/γ-PGA] | 7.73 | 7.43 | – | –
Poly[Neu5Ac α2-3lactosylamine β-N-(ε-aminocaproyl)/γ-PGA] | 7.43 | 7.43 | – | –
Poly[Neu5Ac α2-6-N-acetyllactosaminylamine β-N-(ε-aminocaproyl)/γ-PGA] | 8.92 | < 6.70 | many times greater | –
Poly[Neu5Ac α2-6-lacto-N-neotetraosylamine β-N-(ε-aminocaproyl)/γ-PGA] | 9.54 | < 6.70 | – | many more times greater
Poly[Neu5Ac α2-6lactosylamine β-N-(ε-aminocaproyl)/γ-PGA] | 8.33 | < 6.70 | – | –
